Assays:
[1] = tested on: HSF cell line; experiment: Cytotoxicity on HSF normal cell line (SRB assay); type: cell-based; conditions: HSF normal human skin fibroblast; mean of three ± SD
Experimental: The dichlorobenzimidazole derivative 10h was tested in Nawah scientific—Cairo—Egypt for its cytotoxic activity on HSF cell line as stated in the Additional file A [53, 54].
6. Analysis of 10h on HSF normal cell line
Human Skin Fibroblast (HSF) was obtained from Nawah Scientific Inc., (Mokatam, Cairo, Egypt). Cells were maintained in DMEM media supplemented with […] of streptomycin, 100 units/mL of penicillin and 10% of heat-inactivated fetal bovine serum in humidified, 5% (v/v) CO2atmosphere at 37 °C. Cell viability was assessed by SRB assay. Aliquots of 100 μL cell suspension (5x10^3 cells) were in 96-well plates and incubated in complete media for 24 h. Cells were treated with another aliquot of 100 μL media containing drugs at various concentrations.
After drug exposure, cells were fixed by replacing media with 150 μL of 10% TCA and incubated at 4 °C for 1 h. The TCA solution was removed, and the cells were washed 5 times with distilled water. Aliquots of 70 μL SRB solution (0.4% w/v) were added and incubated in a dark place at room temperature for 10 min. Plates were washed 3 times with 1% acetic acid and allowed to air-dry overnight. Then, 150 μL of TRIS (10 mM) was added to dissolve protein-bound SRB stain; the absorbance was measured at 540 nm using an Infinite F50 microplate reader (TECAN, Switzerland).
6.2. Dose response curve of 10h on HSF normal cell line
Figure 66. […]

[2] = molecular target: T1, BRAFWT (Homo sapiens, UniProt P15056); conditions: cited from earlier work
T1 construct: purchased BPS Biosciences 78316

[3] = tested on: PDGFR-β; design: method as in PMID 35636123; conditions: cited from earlier work
[4] = molecular target: BRAFV600E (Homo sapiens, UniProt P15056, V600E); design: purchased BPS Biosciences 48688; conditions: cited from earlier work
[5] = tested on: c-KIT; design: method as in PMID 35636123; conditions: cited from earlier work
[6] = tested on: FLT-3; design: method as in PMID 35636123; conditions: cited from earlier work
[7] = tested on: HepG2 cell line; design: method as in PMID 28505536, PMID 32053964; conditions: antiproliferative activity; cited from earlier work
[8] = molecular target: VEGFR-2 (Homo sapiens, UniProt P35968); design: purchased; conditions: cited from earlier work
[9] = molecular target: FGFR-1 (Homo sapiens, UniProt P11362); design: purchased; conditions: cited from earlier work
Sequence of FGFR-1 (P11362 22-822): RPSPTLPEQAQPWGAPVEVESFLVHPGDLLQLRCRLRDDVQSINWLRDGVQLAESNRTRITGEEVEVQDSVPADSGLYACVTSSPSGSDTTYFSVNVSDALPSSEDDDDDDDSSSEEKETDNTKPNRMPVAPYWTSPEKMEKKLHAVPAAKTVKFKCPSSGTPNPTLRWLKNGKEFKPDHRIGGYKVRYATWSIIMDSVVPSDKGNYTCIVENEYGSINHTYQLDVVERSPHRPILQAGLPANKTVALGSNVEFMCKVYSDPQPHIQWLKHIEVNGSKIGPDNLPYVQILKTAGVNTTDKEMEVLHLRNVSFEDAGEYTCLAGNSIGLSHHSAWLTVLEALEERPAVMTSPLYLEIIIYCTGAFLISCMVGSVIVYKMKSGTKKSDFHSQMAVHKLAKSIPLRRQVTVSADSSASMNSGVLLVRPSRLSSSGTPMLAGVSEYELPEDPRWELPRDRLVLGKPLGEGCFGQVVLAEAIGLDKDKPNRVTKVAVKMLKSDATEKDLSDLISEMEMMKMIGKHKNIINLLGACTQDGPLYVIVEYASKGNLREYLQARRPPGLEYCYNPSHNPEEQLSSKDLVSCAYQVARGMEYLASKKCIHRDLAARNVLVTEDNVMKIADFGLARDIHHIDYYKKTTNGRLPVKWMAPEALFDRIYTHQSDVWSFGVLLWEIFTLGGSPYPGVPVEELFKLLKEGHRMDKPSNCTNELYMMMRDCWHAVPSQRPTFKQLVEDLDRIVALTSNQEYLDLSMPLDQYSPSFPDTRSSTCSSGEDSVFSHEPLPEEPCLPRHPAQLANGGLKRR

Sequence of BRAFV600E (P15056 whole entry V600E): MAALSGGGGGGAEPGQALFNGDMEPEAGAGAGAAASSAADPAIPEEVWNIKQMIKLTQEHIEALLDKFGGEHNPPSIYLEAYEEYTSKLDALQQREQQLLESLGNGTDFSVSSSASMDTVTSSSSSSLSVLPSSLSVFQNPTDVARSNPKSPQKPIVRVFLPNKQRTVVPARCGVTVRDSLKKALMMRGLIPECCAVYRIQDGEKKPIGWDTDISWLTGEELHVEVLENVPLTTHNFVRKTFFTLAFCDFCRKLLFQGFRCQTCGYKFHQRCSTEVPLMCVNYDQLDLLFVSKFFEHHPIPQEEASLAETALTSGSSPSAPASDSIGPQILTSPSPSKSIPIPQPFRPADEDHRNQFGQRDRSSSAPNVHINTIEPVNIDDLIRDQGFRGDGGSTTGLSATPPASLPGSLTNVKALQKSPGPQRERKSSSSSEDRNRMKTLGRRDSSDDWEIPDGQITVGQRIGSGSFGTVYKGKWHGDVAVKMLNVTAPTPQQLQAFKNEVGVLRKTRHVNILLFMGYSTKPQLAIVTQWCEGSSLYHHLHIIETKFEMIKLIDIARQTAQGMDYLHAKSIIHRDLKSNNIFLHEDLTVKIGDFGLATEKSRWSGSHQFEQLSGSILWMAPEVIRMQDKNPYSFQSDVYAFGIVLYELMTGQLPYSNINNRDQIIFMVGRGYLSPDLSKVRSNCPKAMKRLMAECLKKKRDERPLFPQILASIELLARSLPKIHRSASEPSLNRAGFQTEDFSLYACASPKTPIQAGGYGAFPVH
T1 sequence (P15056 whole entry): as the sequence (P15056 whole entry V600E) above, with E600V counted along it
Sequence of VEGFR-2 (P35968 20-1356): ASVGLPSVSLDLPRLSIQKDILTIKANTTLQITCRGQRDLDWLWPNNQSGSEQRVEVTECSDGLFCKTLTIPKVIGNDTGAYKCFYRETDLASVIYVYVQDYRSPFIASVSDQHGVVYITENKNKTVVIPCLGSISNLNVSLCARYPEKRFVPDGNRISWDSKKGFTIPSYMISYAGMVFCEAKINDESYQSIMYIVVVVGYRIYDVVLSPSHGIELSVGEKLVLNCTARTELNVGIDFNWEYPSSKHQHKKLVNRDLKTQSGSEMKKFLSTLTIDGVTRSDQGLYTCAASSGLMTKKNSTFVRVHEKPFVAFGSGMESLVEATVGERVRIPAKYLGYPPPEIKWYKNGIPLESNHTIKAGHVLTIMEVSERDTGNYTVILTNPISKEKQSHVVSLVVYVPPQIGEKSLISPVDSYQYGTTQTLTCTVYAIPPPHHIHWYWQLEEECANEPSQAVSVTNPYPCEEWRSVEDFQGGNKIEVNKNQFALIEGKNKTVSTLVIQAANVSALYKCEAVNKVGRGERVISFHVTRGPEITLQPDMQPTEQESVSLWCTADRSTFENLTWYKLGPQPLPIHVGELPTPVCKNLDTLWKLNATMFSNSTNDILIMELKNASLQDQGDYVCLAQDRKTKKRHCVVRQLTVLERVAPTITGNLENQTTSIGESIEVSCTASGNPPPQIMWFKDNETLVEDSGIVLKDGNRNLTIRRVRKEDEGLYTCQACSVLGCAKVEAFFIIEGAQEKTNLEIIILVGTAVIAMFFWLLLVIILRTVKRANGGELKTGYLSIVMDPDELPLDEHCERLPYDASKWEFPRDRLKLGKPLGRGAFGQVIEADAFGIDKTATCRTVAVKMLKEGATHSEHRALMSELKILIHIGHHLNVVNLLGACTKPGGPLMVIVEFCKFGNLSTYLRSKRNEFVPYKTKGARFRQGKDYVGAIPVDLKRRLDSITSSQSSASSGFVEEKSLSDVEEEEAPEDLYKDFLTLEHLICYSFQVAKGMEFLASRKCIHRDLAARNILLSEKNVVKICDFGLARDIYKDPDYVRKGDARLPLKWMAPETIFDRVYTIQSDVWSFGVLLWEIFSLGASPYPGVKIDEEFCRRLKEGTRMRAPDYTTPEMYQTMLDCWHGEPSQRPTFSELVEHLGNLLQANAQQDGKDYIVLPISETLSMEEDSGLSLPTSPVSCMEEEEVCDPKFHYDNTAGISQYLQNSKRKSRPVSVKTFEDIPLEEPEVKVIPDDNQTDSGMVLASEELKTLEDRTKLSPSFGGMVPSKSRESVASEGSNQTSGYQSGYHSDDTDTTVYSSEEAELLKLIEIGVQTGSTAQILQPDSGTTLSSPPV

For `CNC(=O)c1cc(Oc2ccc(NC(=O)Nc3ccc(Cl)c(C(F)(F)F)c3)cc2)ccn1` [Sorafenib, reference compound], the IC50 [1] was 2.25 ± 0.14 µM.

In the case of `Cc1ccc(-n2c(SCC(=O)Nc3ccc(-c4nc5ccccc5[nH]4)cc3)nc3ccccc3c2=O)cc1` [III], the IC50 [2] is given as 6.74 µM, the IC50 [3] is given as 0.03 µM and the IC50 [4] is given as 2.47 µM. The IC50 [5] was 0.12 µM and the IC50 [6] was 0.13 µM.

In the case of `CC(C)c1nc2ccccc2n1CC(=O)N/N=C/c1cccc(OCc2ccccc2)c1` [V], the IC50 [7] is given as 1.98 µM.

For `O=C1Nc2ccc(Br)cc2/C1=N\NC(=O)c1ccc2[nH]c(-c3ccccc3)nc2c1` [IV], the IC50 [2] is listed as 0.02 µM, the IC50 [8] is listed as 0.18 µM and the IC50 [4] is listed as 1.52 µM. The IC50 [9] was 1.65 µM.
